Source: patent US20040142864A1, “Crystal structure of PIM-1 kinase” (Plexxikon, Inc., priority 2002, published 2004)

Biological target: PIM-1 (Homo sapiens, UniProt P11309)
Experiment: PY20 AlphaScreen kit kinase inhibition assay

PIM-1, sequence (P11309 whole entry): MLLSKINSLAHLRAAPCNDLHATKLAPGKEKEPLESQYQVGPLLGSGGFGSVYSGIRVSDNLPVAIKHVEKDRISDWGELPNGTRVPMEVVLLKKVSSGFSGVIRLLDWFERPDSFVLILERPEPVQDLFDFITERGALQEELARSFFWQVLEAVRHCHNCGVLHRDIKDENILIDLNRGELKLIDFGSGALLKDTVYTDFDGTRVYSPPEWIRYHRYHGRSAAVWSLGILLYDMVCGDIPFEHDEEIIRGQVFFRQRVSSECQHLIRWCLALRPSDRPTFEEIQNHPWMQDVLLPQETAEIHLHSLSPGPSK

IC50: 10 nM
SMILES: CSc1cccc(Nc2ncc3cc(-c4c(Cl)cccc4Cl)c(=O)n(C)c3n2)c1
